Reference: patent US12595280B2, “Phosphoramidates for the treatment of hepatitis B virus” (priority 2014, dated 2026)
pEC50: −log10 of the molar value. Like-named read-outs stand apart in the source and are kept apart here.

Experiments:
HBV = HBV efficacy assay: viral DNA in HepG2.2.15 supernatant by qPCR; format: cell-based; details: Hepatitis B virus; for EC50: HepG2.2.15, 144 h, read-out: HBV Efficacy Assay EC50 (μM); for pEC50: 144 h, HepG2.2.15 cells, 6 days, viral DNA in supernatant by qPCR, read-out: HBV Efficacy Assay EC50
Method: HepG2.2.15 cells (100 μL) in RPMI1640 medium with 10% fetal bovine serum was added to all wells of a 96-well plate at a density of 1×10^4 cells per well and the plate was incubated at 37° C. in an environment of 5% CO2 for 24 hours. Following incubation, six ten-fold serial dilutions of test compound prepared in RPMI1640 medium with 10% fetal bovine serum were added to individual wells of the plate in triplicate. Six wells in the plate received medium alone as a virus only control. The plate was incubated for 6 days at 37° C. in an environment of 5% CO2. The culture medium was changed on day 3 with medium containing the indicated concentration of each compound. One hundred microliters of supernatant was collected from each well for analysis of viral DNA by qPCR and cytotoxicity was evaluated by XTT staining of the cell culture monolayer on the sixth day.
Ten microliters of cell culture supernatant collected on the sixth day was diluted in qPCR dilution buffer (40 μg/mL sheared salmon sperm DNA) and boiled for 15 minutes. Quantitative real time PCR was performed in […] using an Applied Biosystems 7900HT Sequence Detection System and the supporting SDS 2.4 software. Five microliters (5 μL) of boiled DNA for each sample and serial 10-fold dilutions of a quantitative DNA standard were subjected to real time Q-PCR using Platinum Quantitative PCR SuperMix-UDG (Invitrogen) and specific DNA oligonucleotide primers (IDT, Coralville, […]) HBV-AD38-qF1 (5′-CCGTCTGTGCCTTCTCATCTG-3′) (SEQ ID NO: 1), HBV-AD38-qR1 (5′-AGT CCA AGA GTY CTC TTA TRY AAG ACC TT-3′) (SEQ ID NO: 2), and HBV-AD38-qP1 (5′-FAM CCG TGT GCA/ZEN/CTT CGC TTC ACC TCT GC-3′BHQ1) (SEQ ID NO: 3, underlined portion only) at a final concentration of 0.2 μM for each primer in a total reaction volume of 15 μL. The HBV DNA copy number in each sample was interpolated from the standard curve by the SDS.24 software and the data were imported into an Excel spreadsheet for analysis.

[1] = human, in vivo; cited from earlier work
[2] = test system: HBV encoded polymerase (Hepatitis B virus genotype D subtype ayw); details: cited from earlier work
Sequence of HBV encoded polymerase (Hepatitis B virus genotype D subtype ayw) (P03156 whole entry): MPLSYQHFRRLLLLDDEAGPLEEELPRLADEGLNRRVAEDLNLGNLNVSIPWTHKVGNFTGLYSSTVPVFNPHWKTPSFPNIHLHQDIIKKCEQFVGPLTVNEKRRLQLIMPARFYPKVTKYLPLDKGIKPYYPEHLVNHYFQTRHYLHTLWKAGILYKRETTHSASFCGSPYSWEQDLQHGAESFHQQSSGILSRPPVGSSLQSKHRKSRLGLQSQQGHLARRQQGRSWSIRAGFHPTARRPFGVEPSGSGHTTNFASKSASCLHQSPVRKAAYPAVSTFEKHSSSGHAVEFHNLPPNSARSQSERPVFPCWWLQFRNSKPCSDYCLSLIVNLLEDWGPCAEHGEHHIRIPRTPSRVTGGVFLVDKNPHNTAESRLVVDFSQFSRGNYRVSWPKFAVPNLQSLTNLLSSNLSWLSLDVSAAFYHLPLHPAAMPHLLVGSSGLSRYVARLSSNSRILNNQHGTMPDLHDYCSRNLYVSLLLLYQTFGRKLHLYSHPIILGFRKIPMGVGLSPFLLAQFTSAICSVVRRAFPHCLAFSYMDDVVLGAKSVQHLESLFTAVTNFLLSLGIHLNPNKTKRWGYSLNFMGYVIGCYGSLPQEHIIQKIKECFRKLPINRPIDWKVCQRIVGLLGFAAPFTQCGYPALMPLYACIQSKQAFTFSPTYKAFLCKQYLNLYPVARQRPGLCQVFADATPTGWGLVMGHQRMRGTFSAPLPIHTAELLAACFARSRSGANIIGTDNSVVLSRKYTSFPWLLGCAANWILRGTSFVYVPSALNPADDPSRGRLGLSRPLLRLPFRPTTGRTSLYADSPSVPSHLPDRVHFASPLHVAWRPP

Compound | EC50 (HBV) | other results
Cc1cn([C@H]2O[C@@H](CO[P@](=O)(N[C@@H](C)C(=O)OC(C)C)Oc3ccccc3)C(O)C2F)c(=S)[nH]c1=O (some centres unmarked) | > 100 µM | –
Cc1cn([C@H]2O[C@@H](CO)C(O)C2F)c(=S)[nH]c1=O (some centres unmarked) | – | pEC50 (HBV): < 4.00
Cc1cn([C@H]2O[C@@H](CO[P@@](=O)(N[C@@H](C)C(=O)OC(C)C)Oc3ccccc3)[C@H](O)[C@H]2F)c(=O)[nH]c1=O | 1.71 µM | –
Cc1cn([C@H]2O[C@@H](CO[P@@](=O)(N[C@@H](C)C(=O)OC(C)C)Oc3ccccc3)C(O)C2F)c(=S)[nH]c1=O (some centres unmarked) | > 100 µM | –
Cc1cn([C@H]2O[C@@H](CO[P@@](=O)(N[C@@H](C)C(=O)OC(C)C)Oc3ccccc3)[C@H](O[P@@](=O)(N[C@@H](C)C(=O)OC(C)C)Oc3ccccc3)[C@H]2F)c(=O)[nH]c1=O | 2.9 µM | –
Cc1cn([C@H]2O[C@@H](CO[P@](=O)(N[C@@H](C)C(=O)OC(C)C)Oc3ccccc3)[C@H](O)[C@H]2F)c(=O)[nH]c1=O | 4.29 µM | –
Cc1cn([C@H]2O[C@@H](CO[P@](=O)(N[C@@H](C)C(=O)OC(C)C)Oc3ccccc3)[C@H](O[P@](=O)(N[C@@H](C)C(=O)OC(C)C)Oc3ccccc3)[C@H]2F)c(=O)[nH]c1=O | 2.39 µM | –
Nc1ccn([C@@H]2CS[C@H](CO)O2)c(=O)n1 | – | pEC50 (HBV): 6.85
Cc1cn([C@H]2O[C@@H](CO)[C@H](O)[C@H]2F)c(=O)[nH]c1=O [Clevudine] | – | adverse effect in patients [1]: drug-related skeletal myopathy
Cc1cn([C@H]2O[C@@H](CO)[C@H](O)[C@H]2F)c(=O)[nH]c1=O | 0.46 µM | –
Cc1cn([C@H]2O[C@@H](COP(=O)(O)OP(=O)(O)OP(=O)(O)O)C(O)C2F)c(=O)[nH]c1=O (some centres unmarked) [clevudine triphosphate, Clevudine-5′-Triphosphate] | – | mode of inhibition of the HBV encoded polymerase [2]: competitive non-substrate inhibitor
